Test results from PubChem BioAssay (NCI).
Values joined by “and” are separate entries in the source; they are usually repeats but may differ in a detail not shown here. Identical values can stand only once.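 Five concentrations, 48 hours, 96-well plates. At the GI50, growth is halved. At the TGI there is no net growth.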

Key:
Assay in all cases: NCI tumour cell line growth inhibition, 48 h
MALME-3M melanoma = system: MALME-3M melanoma
UACC-62 melanoma = system: UACC-62 melanoma
786-0 renal = system: 786-0 renal
SF-295 CNS = system: SF-295 CNS
NCI-H460 lung = system: NCI-H460 lung
SF-539 CNS = system: SF-539 CNS
NCI-H23 lung = system: NCI-H23 lung
BT-549 breast = system: BT-549 breast
MCF7 breast = system: MCF7 breast
MDA-MB-231 breast = system: MDA-MB-231 breast

SMILES	TGI (MALME-3M melanoma)	TGI (UACC-62 melanoma)	TGI (786-0 renal)	TGI (SF-295 CNS)	TGI (NCI-H460 lung)	TGI (SF-539 CNS)	TGI (NCI-H23 lung)	GI50 (BT-549 breast)	TGI (BT-549 breast)	GI50 (MCF7 breast)	TGI (MCF7 breast)	GI50 (MALME-3M melanoma)	GI50 (786-0 renal)	GI50 (SF-295 CNS)	GI50 (NCI-H460 lung)	GI50 (SF-539 CNS)	GI50 (MDA-MB-231 breast)	TGI (MDA-MB-231 breast)	GI50 (UACC-62 melanoma)	GI50 (NCI-H23 lung)
O=C(/C=C/c1ccccc1O)c1cccnc1	> 100 µM	> 100 µM	> 100 µM	> 100 µM	> 100 µM	> 100 µM	> 100 µM	–	–	–	–	–	–	–	–	–	–	–	–	–
Nc1ccc2c(c1)CC1c3ccccc3C(C2)c2ccccc21	> 100 µM	> 100 µM	> 100 µM	> 100 µM	> 100 µM	> 100 µM	–	–	–	–	–	–	–	–	–	–	–	–	–	–
ClC1=NC(Cl)C(Cl)=N/C1=N\c1ncn[nH]1 (stereo unspecified)	3.7 µM	–	11.4 µM	28.5 µM	14.9 µM	5.6 µM	–	2.45 µM	5.42 µM	1.78 µM	4.15 µM	1.82 µM	3.41 µM	13.4 µM	3.65 µM	2.22 µM	1.79 µM	3.55 µM	–	–
CN(C)CCNC(=O)Cn1ccc(=O)c2ccc([N+](=O)[O-])cc21	> 100 µM	> 100 µM	> 100 µM	> 100 µM	> 100 µM	> 100 µM	> 100 µM	–	–	–	> 100 µM	–	–	–	–	–	–	–	–	–
COc1cc2ccnc(-c3c4ccccc4c(N)c4c(OC)c(OC)ccc34)c2cc1OC	11.5 µM	10.1 µM	11.5 µM	13.9 µM	6.53 µM	4.6 µM	17.7 µM	–	–	–	–	–	–	–	–	–	–	–	–	–
O=C(O)CCCCCO	> 100 µM	> 100 µM	> 100 µM	> 100 µM	> 100 µM	> 100 µM	> 100 µM	–	–	–	–	–	–	–	–	–	–	–	–	–
CC1=C(C(=O)CC(=O)C(=O)Nc2ccccc2)Sc2ccccc2N1	> 100 µM	> 100 µM	> 100 µM	> 100 µM	> 100 µM	> 100 µM	> 100 µM	–	–	–	–	–	–	–	–	–	–	–	–	–
O=C1OC(C2=CC(=O)c3ccccc3C2=O)C(Cl)=C1Cl (stereo unspecified)	57.9 µM	39.5 µM	43.2 µM	> 100 µM	> 100 µM	72.7 µM	59.4 µM	–	–	–	44.8 µM	–	–	–	–	–	–	36 µM	–	–
N#CCN1CCOCCOCCN(CC#N)CCOCCOCC1	> 100 µM	> 100 µM	> 100 µM	> 100 µM	> 100 µM	> 100 µM	> 100 µM	–	–	–	–	–	–	–	–	–	–	–	–	–
CCN(C(=O)CCl)C(C)(C)C(SSSC(c1ccc(Cl)cc1)C(C)(C)N(CC)C(=O)CCl)c1ccc(Cl)cc1 (stereo unspecified)	3.97 µM	–	31.2 µM	8.93 µM	20.9 µM	10.9 µM	–	10.3 µM	23 µM	5.09 µM	21.9 µM	2.21 µM	13.6 µM	2.99 µM	7.34 µM	3.14 µM	3.58 µM	14.6 µM	–	–
CCOC(=O)N1N=NC2C3OC(C[C@@]3(C#N)OC(C)=O)[C@H]21 (stereo partly specified)	> 100 µM	> 100 µM	> 100 µM	> 100 µM	> 100 µM	> 100 µM	> 100 µM	–	–	–	–	–	–	–	–	–	–	–	–	–
CC(=O)C1C(=O)C(=O)N(c2ccccc2N2C(=O)C(=O)C(C(C)=O)C2=O)C1=O (stereo unspecified)	> 100 µM	> 100 µM	> 100 µM	> 100 µM	> 100 µM	> 100 µM	> 100 µM	–	–	–	–	–	–	–	–	–	–	–	–	–
O=C(Nc1ccccc1)NS(=O)(=O)c1ccc(N2N=C3c4ccccc4CC3C2c2ccccn2)cc1 (stereo unspecified)	–	37.2 µM	> 100 µM	50 µM	> 100 µM	75.7 µM	52.2 µM	30.6 µM	> 100 µM	27 µM	> 100 µM	–	35.5 µM	20.6 µM	38.5 µM	30.6 µM	19.8 µM	60.8 µM	17.8 µM	20.8 µM
COc1cc(/C=C/c2ccc(OC(C)=O)cc2)cc(OC)c1OC	97.1 µM	70.6 µM	> 100 µM	66.3 µM	91.6 µM	60.8 µM	–	–	–	–	–	–	–	–	–	–	–	–	–	–
Cc1ccc(S(=O)(=O)SCc2ccccc2CSS(=O)(=O)c2ccc(C)cc2)cc1	> 100 µM	31 µM	34.4 µM	> 100 µM	> 100 µM	36.2 µM	46.4 µM	–	–	–	–	–	–	–	–	–	–	–	–	–
COc1cc2c(c(OC)c1OC)-c1ccc(SC)c(=O)cc1[C@@H](NCc1cccc(C#N)c1)CC2	> 75 µM	0.0637 µM	20.9 µM	–	8.97 µM	0.0354 µM and < 0.0075 µM	< 0.0075 µM	–	–	–	–	< 0.0075 µM	< 0.0075 µM	< 0.0075 µM	–	< 0.0075 µM	–	–	–	–
CCC[CH2][Ge]([CH2]CCC)([CH2]CCC)[O]C(=O)C(O)c1ccccc1 (stereo unspecified)	18 µM	18.1 µM	23.2 µM	17.6 µM	34.9 µM	22.1 µM	9.91 µM	–	–	–	–	1.45 µM	7.41 µM	1.01 µM	3.03 µM	9.64 µM	–	–	4.03 µM	0.366 µM
CC(=O)Nc1ccccc1-c1cnc2ccccc2n1	> 100 µM	> 100 µM	> 100 µM	> 100 µM	> 100 µM	> 100 µM	> 100 µM	–	–	–	–	–	–	–	–	–	–	–	–	–
O=Cc1ccc(Oc2c3ccccc3nc3occc23)cc1	–	30.4 µM	54.5 µM	36.8 µM	48.2 µM	37.5 µM	36 µM	–	–	13.8 µM	32.2 µM	–	18.7 µM	14.4 µM	20.2 µM	18.2 µM	–	22.5 µM	13.1 µM	15 µM
CC(=O)OC1C/C(C)=C/CCC(C)/C=C/C2(C)CCC(C(C)(C)O)C12 (stereo unspecified)	> 100 µM	> 100 µM	> 100 µM	> 100 µM	> 100 µM	> 100 µM	> 100 µM	–	–	–	–	–	–	–	–	–	–	–	–	–
COc1cc(Cn2ccc3c2-c2oncc2CC3)cc(OC)c1	37.9 µM	> 100 µM	37.1 µM	28.8 µM	13.3 µM	21.4 µM	52.9 µM	–	–	2.2 µM	> 100 µM	4.25 µM	6.36 µM	3.05 µM	3.11 µM	2.8 µM	6.58 µM	81.4 µM	3.68 µM	3.89 µM
